Experimental data published in patent US8637510B2, “Morpholinothiazoles as alpha 7 positive allosteric modulators” (Janssen Pharmaceutica NV, priority 2009, dated 2014).

Columns and labels:
[1] = target: T1, human alpha 7-wt nAChR-expressing GH4C1 cells (Homo sapiens, UniProt P36544); assay: Patch-clamp current recording (whole-cell voltage-clamp, PAM type classification); format: cell-based; set-up: key: Type 0 compounds minimally change the effect size of the current elicited by 1 mM choline.; Type 1 compounds enhance the effect size of the current elicited by 1 mM choline but minimally alter the kinetics of the receptor.; Type 2 compounds enhance the effect size of the current elicited by 1 mM choline while reducing the rate and/or the extent of desensitization.; Type 3 compounds enhance the effect size of the current elicited by 1 mM choline. When tested at higher concentrations up to 10 μM they completely inhibit desensitization; Type 4 compounds allow for an initial desensitization of the receptor followed by a re-opening of the receptor during agonist application; settings: 1 mM choline
T1 construct: expressed in transfected cells
T1 sequence (P36544 23-502): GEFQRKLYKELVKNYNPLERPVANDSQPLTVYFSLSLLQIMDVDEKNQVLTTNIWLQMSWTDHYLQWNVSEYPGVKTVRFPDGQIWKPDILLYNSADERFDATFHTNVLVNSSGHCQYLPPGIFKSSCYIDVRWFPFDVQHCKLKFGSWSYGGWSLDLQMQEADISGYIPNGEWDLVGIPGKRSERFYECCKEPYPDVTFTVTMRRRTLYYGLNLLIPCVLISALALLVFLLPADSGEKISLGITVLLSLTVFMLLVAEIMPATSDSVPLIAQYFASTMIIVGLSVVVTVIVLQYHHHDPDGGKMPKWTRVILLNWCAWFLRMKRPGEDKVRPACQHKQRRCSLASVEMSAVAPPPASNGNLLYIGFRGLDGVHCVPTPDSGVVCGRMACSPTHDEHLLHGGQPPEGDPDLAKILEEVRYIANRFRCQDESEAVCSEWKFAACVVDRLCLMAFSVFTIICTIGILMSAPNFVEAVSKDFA
Method: The compounds of the present invention are classified as type 1-4, based on qualitative kinetic properties, as determined by whole-cell voltage-clamp recordings. This classification is based on the effect of an alpha 7 PAM compound, as described hereinbefore, on the signal elicited by an agonist application. In particular, said agonist is choline at a concentration of 1 mM. In a preferred experimental setting, said alpha 7 PAM compound and choline are simultaneously applied to the cell, as described hereinafter. Desensitization is defined as the closure of the receptor upon activation during the application of the agonist in whole-cell voltage-clamp electrophysiology measurements seen as the reduction of the […] current after initial activation by the agonist.
The definition of the PAM types 1-4 is described hereinafter: • Type 0 compounds minimally change the effect size of the current elicited by 1 mM choline. • Type 1 compounds enhance the effect size of the current elicited by 1 mM choline but minimally alter the kinetics of the receptor. In particular, the rate and the extent of desensitization and of deactivation of the receptor elicited by the agonist is not affected. The compound-modulated response to 1 mM choline, therefore, is close to a linear scaling of the 1 mM choline response in absence of the alpha 7 PAM compound. • Type 2 compounds enhance the effect size of the current elicited by 1 mM choline while reducing the rate and/or the extent of desensitization. Deactivation of the receptor is generally unaffected. • Type 3 compounds enhance the effect size of the current elicited by 1 mM choline. […] Deactivation of the receptor may be slowed down • Type 4 compounds allow for an initial desensitization of the receptor followed by a re-opening of the receptor during agonist application. At low-potency concentrations of the alpha 7 PAM compound, the agonist-induced activation, which is followed by desensitization, can still be separated from the compound-induced re-opening as an initial inward current-maximum. At higher potency concentrations of the alpha 7 PAM compound, the re-opening occurs faster than the closure due to desensitization so that the initial current-maximum disappears.
A compound was considered to have interesting PAM-like activity when the potentiation of the peak current was at least 200% compared to the control choline response (=100%). Such compounds are classified as belonging to a particular PAM type in the Experimental Part. Compounds not meeting the condition are not classified as belonging to a particular PAM-type.
The compounds also have a potentiating effect on the response to choline when measured by whole-cell patch clamp electrophysiology in GH4C1 cells stably over-expressing the human wild-type alpha 7 receptor.
Patch-clamp recording from mammalian cells has provided a powerful means of assessing the function of membrane-bound proteins thought to be subunits of ligand-gated ion channels. Activation of such proteins by endogenous or exogenous ligands cause opening of a pore associated with the receptor through which ions flow down their electrochemical gradient. In the case of the human alpha 7-wt nAChR-expressing GH4C1 recombinant cell line the preferential permeability to calcium of this receptor means that calcium flows into the cell upon activation by ACh, choline and other nicotinic ligands giving rise to a calcium current. Since this receptor rapidly desensitizes in the presence of agonist it is important that an application system is used which is capable of very rapid switching of solutions (<100 ms) to prevent partial or full desensitisation of receptor responses coincident with the time of agonist application. Consequently, a second convenient technique to assess the enhancement of nicotinic efficacy is a patch-clamp recording from human alpha 7-wt nAChR-expressing GH4C1 cells coupled with a rapid-application system. […]

human alpha 7-wt nAChR = target: T2, human alpha 7-wt nAChR (Homo sapiens, UniProt P36544); assay: Ca2+ flux imaging (FDSS) (Protocol B); format: cell-based; settings: for EC50: potentiation of 100 μM choline, compounds 0.01 μM to 30 μM, read-out: a7-PAM-G_[33]_pEC50 pEC50 (converted); for Emax: read-out: a7-PAM-G_[33]_Eff_Curve_FI % Efficacy
T2 construct: expressed in transfected cells
T2 sequence (P36544 23-502): as above
Outline: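 PAM activity was measured as FDSS calcium fluorescence in α7-wt nAChR cells loaded with 2 μM Fluo-4AM, with compounds at 0.01–30 μM added alongside or 10 min ahead of sub-maximal 100 μM choline. Peak responses were normalised to choline-only efficacy, and EC50 was taken at half-maximal effect.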

[2] = efficacy of 100 μM choline defined as 100% in the absence of a PAM

SMILES	PAM_Type PAM type [1]	a7-PAM-G_[33]_Eff_Curve_FI % Efficacy (human alpha 7-wt nAChR; [2])	EC50 (human alpha 7-wt nAChR)	Emax (human alpha 7-wt nAChR; [2])
Cc1cc(-c2sc(N3CC(C)OC(C(F)(F)F)C3)nc2CNC(=O)CC2CC2)cc(C)n1 (racemic) [Compound 202, N-[[5-(2,6-dimethyl-4-pyridinyl)-2-[2-methyl-6-(trifluoromethyl)-4-morpholinyl]-4-thiazolyl]methyl]-cyclopropaneacetamide]	2	735%	21.4 nM	
Cc1cc(-c2sc(N3CCOC(C)C3)nc2CNC(=O)c2conc2C)cc(C)n1 (single isomer, unassigned) [Compound 69, N-[[5-(2,6-dimethyl-4-pyridinyl)-2-[(2S*)-2-methyl-4-morpholinyl]-4-thiazolyl]methyl]-3-methyl-4-isoxazolecarboxamide]	2		955 nM	645%
Cc1cc(-c2sc(N3CCOC(C)C3)nc2CNC(=O)c2conc2C)cc(C)n1 (single isomer, unassigned) [Compound 73, N-[[5-(2,6-dimethyl-4-pyridinyl)-2-[(2R*)-2-methyl-4-morpholinyl]-4-thiazolyl]methyl]-3-methyl-4-isoxazolecarboxamide]	2		724 nM	
Cc1cc(-c2sc(N3C[C@@H](C)O[C@@H](C)C3)nc2CNC(=O)C2CCC2)cc(C)n1 [Compound 2, N-[[2-[(2R,6S)-2,6-dimethyl-4-morpholinyl]-5-(2,6-dimethyl-4-pyridinyl)-4-thiazolyl]methyl]-cyclobutanecarboxamide]	2		67.6 nM	
Cc1cc(-c2sc(N3C[C@@H](C)O[C@@H](C)C3)nc2CNC(=O)c2ccccc2Cl)cc(C)n1 [Compound 5, 2-chloro-N-[[2-[(2R,6S)-2,6-dimethyl-4-morpholinyl]-5-(2,6-dimethyl-4-pyridinyl)-4-thiazolyl]methyl]-benzamide]	2		135 nM	568%
Cc1cc(-c2sc(N3C[C@@H](C)O[C@@H](C)C3)nc2CNC(=O)c2cccc(F)c2)cc(C)n1 [Compound 7, N-[[2-[(2R,6S)-2,6-dimethyl-4-morpholinyl]-5-(2,6-dimethyl-4-pyridinyl)-4-thiazolyl]methyl]-3-fluoro-benzamide]	2		316 nM	723%
Cc1cc(-c2sc(N3C[C@@H](C)O[C@@H](C)C3)nc2CNC(=O)c2ccc(F)cc2)cc(C)n1 [Compound 8, N-[[2-[(2R,6S)-2,6-dimethyl-4-morpholinyl]-5-(2,6-dimethyl-4-pyridinyl)-4-thiazolyl]methyl]-4-fluoro-benzamide]	2		457 nM	452%
Cc1cc(-c2sc(N3C[C@@H](C)O[C@@H](C)C3)nc2CNC(=O)c2cccc(Cl)c2)cc(C)n1 [Compound 9, 3-chloro-N-[[2-[(2R,6S)-2,6-dimethyl-4-morpholinyl]-5-(2,6-dimethyl-4-pyridinyl)-4-thiazolyl]methyl]-benzamide]	2		240 nM	566%
Cc1cc(-c2sc(N3C[C@@H](C)O[C@@H](C)C3)nc2CNC(=O)c2ccc(Cl)cc2Cl)cc(C)n1 [Compound 10, 2,4-dichloro-N-[[2-[(2R,6S)-2,6-dimethyl-4-morpholinyl]-5-(2,6-dimethyl-4-pyridinyl)-4-thiazolyl]methyl]-benzamide]	2		83.2 nM	630%
Cc1cc(-c2sc(N3C[C@@H](C)O[C@@H](C)C3)nc2CNC(=O)c2ccc(OC(F)(F)F)cc2)cc(C)n1 [Compound 11, N-[[2-[(2R,6S)-2,6-dimethyl-4-morpholinyl]-5-(2,6-dimethyl-4-pyridinyl)-4-thiazolyl]methyl]-4-(trifluoromethoxy)-benzamide]	2		813 nM	703%
Cc1cc(-c2sc(N3C[C@@H](C)O[C@@H](C)C3)nc2CNC(=O)c2cccc(C#N)c2)cc(C)n1 [Compound 12, 3-cyano-N-[[2-[(2R,6S)-2,6-dimethyl-4-morpholinyl]-5-(2,6-dimethyl-4-pyridinyl)-4-thiazolyl]methyl]-benzamide]	2		550 nM	595%
Cc1cc(-c2sc(N3C[C@@H](C)O[C@@H](C)C3)nc2CNC(=O)c2ccc(F)cc2F)cc(C)n1 [Compound 13, N-[[2-[(2R,6S)-2,6-dimethyl-4-morpholinyl]-5-(2,6-dimethyl-4-pyridinyl)-4-thiazolyl]methyl]-2,4-difluoro-benzamide]	2		288 nM	593%
Cc1cc(-c2sc(N3C[C@@H](C)O[C@@H](C)C3)nc2CNC(=O)c2ccc(F)c(F)c2F)cc(C)n1 [Compound 14, N-[[2-[(2R,6S)-2,6-dimethyl-4-morpholinyl]-5-(2,6-dimethyl-4-pyridinyl)-4-thiazolyl]methyl]-2,3,4-trifluoro-benzamide]	2		339 nM	787%
Cc1cc(-c2sc(N3C[C@@H](C)O[C@@H](C)C3)nc2CNC(=O)c2cc(F)cc(F)c2)cc(C)n1 [Compound 15, N-[[2-[(2R,6S)-2,6-dimethyl-4-morpholinyl]-5-(2,6-dimethyl-4-pyridinyl)-4-thiazolyl]methyl]-3,5-difluoro-benzamide]	2		170 nM	411%
Cc1cc(-c2sc(N3C[C@@H](C)O[C@@H](C)C3)nc2CNC(=O)c2cccnc2C)cc(C)n1 [Compound 17, N-[[2-[(2R,6S)-2,6-dimethyl-4-morpholinyl]-5-(2,6-dimethyl-4-pyridinyl)-4-thiazolyl]methyl]-2-methyl-3-pyridinecarboxamide]	2		1000 nM	499%
Cc1cc(-c2sc(N3C[C@@H](C)O[C@@H](C)C3)nc2CNC(=O)c2ccc(Cl)cc2)cc(C)n1 [Compound 19, 4-chloro-N-[[2-[(2R,6S)-2,6-dimethyl-4-morpholinyl]-5-(2,6-dimethyl-4-pyridinyl)-4-thiazolyl]methyl]-benzamide]	2		100 nM	378%
Cc1cc(-c2sc(N3C[C@@H](C)O[C@@H](C)C3)nc2CNC(=O)c2ccc(C(F)(F)F)cc2)cc(C)n1 [Compound 23, N-[[2-[(2R,6S)-2,6-dimethyl-4-morpholinyl]-5-(2,6-dimethyl-4-pyridinyl)-4-thiazolyl]methyl]-4-(trifluoromethyl)-benzamide]	2		229 nM	594%
Cc1cc(-c2sc(N3C[C@@H](C)O[C@@H](C)C3)nc2CNC(=O)c2ccc(F)cc2C)cc(C)n1 [Compound 24, N-[[2-[(2R,6S)-2,6-dimethyl-4-morpholinyl]-5-(2,6-dimethyl-4-pyridinyl)-4-thiazolyl]methyl]-4-fluoro-2-methyl-benzamide]	2		17.4 nM	526%
